Experimental findings from patent US4340539A, “Derivatives of 6-bromo penicillanic acid” (priority 1980, dated 1982) are described below.

The term MIC denotes the least concentration at which growth counts as inhibited.

In brackets after ≈: the same amount, converted by molar mass. Counter-ions that a name gives are not always drawn. Like-named read-outs stand apart in the source and are kept apart here. Where only a bound is given, the exact number is not on record here.

In one series the test system is B. fragilis. Nature of the series: Anti-Bacteroides activity (MIC, agar dilution), alone and in combination with BL-P2013. It counts as cell-based. On the technique in general: In agar dilution, organisms are placed on agar that contains the substance at set levels.
The next series deals with B. thetaiotaomicron. Described as above. It counts as cell-based. The method, then:
*Minimum inhibitory concentration (MIC) determined by the agar dilution
method using 50X dilutions of 24 hour cultures as inocula dispensed by th
Steer's inoculator. Assay medium composed of Brucella Agar plus 5% laked
sheep blood and 10 mcg/ml vitamin K.

In another series the test system is Bacteroides species. Described as above. It counts as cell-based.
Another series deals with S. aureus A-9606. Nature of the series: Therapeutic efficacy in mice experimentally infected with a beta-lactamase strain of Staphylococcus aureus (Table 3). The format is in vivo. The settings on record: for ED50: Staphylococcus aureus, A9606, challenge 5 × 10^8, read-out: PD50/Treatment. The method, then: Treatment schedule: Drugs administered 0 and 2 hours postinfection.

For series [1], the system named is β-lactamase producing strains of E. coli. The series is described as follows: animal or person. The settings on record: Escherichia coli, in Mus musculus, po. The format is in vivo, mice. Here is the method:
(§1) Drugs were administered orally at 0 and 2 hours postinfection.
(§2) Drugs were suspended in TCMC.

Series [2] relates to β-lactamase producing strains of S. aureus. The series is described as follows: animal or person. The format is in vivo, mice. Particulars: Staphylococcus aureus, in Mus musculus, po. Here is the method:
as §1, §2

Series [3] has the same test system. The series is described as follows: Therapeutic efficacy of amoxicillin in combinations with BL-P2024 in infected mice (Table 7). The format is in vivo. Particulars: Staphylococcus aureus, po, read-out: PD50/Treatment.
Series [4] deals with β-lactamase producing strains of E. coli. The series is described as above. The format is in vivo. Particulars: oral.
The subject of a further series is S. pneumoniae. The series is described as follows: Antibacterial activity (MIC). The format is cell-based. The settings on record: Streptococcus pneumoniae; strain A-9585.
The next series has as its system S. pyogenes. Nature of the series: Antibacterial activity (MIC). The settings on record: Streptococcus pyogenes; strain A-9604. The format is cell-based.
Another series concerns S. aureus. Nature of the series: Antibacterial activity (MIC). The format is cell-based. The settings on record: Staphylococcus aureus.
Another series concerns S. faecalis. Nature of the series: Antibacterial activity (MIC). Particulars: Enterococcus faecalis; strain A20688. It counts as cell-based.
For a further series, the system named is E. coli. The series is described as follows: Antibacterial activity (MIC). It counts as cell-based. Particulars: Escherichia coli, strain A15119.
The test system of the next series is P. mirabilis. Nature of the series: Antibacterial activity (MIC). The format is cell-based. Particulars: Proteus mirabilis; strain A-9900.
Another series concerns P. rettgeri. Nature of the series: Antibacterial activity (MIC). It counts as cell-based. Particulars: Providencia rettgeri; strain A21203.
In another series the test system is S. marcescens. The series is described as follows: Antibacterial activity (MIC). The format is cell-based. Particulars: Serratia marcescens; strain A20019.
A further series has as its system E. cloacae. The series is described as follows: Antibacterial activity (MIC). The format is cell-based. The settings on record: Enterobacter cloacae, strain A-9659.
A short description of a further series: in vivo. Also on record: species or system mice. The settings on record: mouse, blood, po, 100 mg/kg, Test 3, oral 100 mg/kg, 30 min; read-out: Blood level. From the text:
Compounds prepared in 5% Propylene Glycol & TweenCMC-H2 O.
Values in parentheses are 95% confidence limits.
Assay Organism: E. coli A9675 (pH = 6.6, 0.1% inoculum)

A short description of another series: Hygroscopicity. It counts as physicochemical.

As to `CC1(C)S[C@@H]2[C@H](NC(=O)[C@H](N)c3ccc(O)cc3)C(=O)N2[C@H]1C(=O)O` [Amoxicillin], the MIC is 8 µg/mL with B. fragilis (strain A21875, β-lactamase +, read-out: MIC); 8 µg/mL in the series with B. fragilis (strain A21916, β-lactamase +, read-out: MIC); 4 µg/mL with B. fragilis (strain A22021, β-lactamase +, read-out: MIC); 8 µg/mL in the series with B. fragilis (strain A22053, β-lactamase +, read-out: MIC); above 125 µg/mL in the series on B. fragilis (strain A22533, β-lactamase +); above 125 µg/mL in the series with B. fragilis (strain A22534, β-lactamase +). Further, the MIC in the series with B. fragilis (strain A22535, β-lactamase +) is above 125 µg/mL; in the series with B. fragilis (strain A22693, β-lactamase +) it was 16 µg/mL; with B. fragilis (strain A22694, β-lactamase +), 16 µg/mL; in the series with B. fragilis (strain A22695, β-lactamase +), 125 µg/mL; in the series on B. fragilis (strain A22696, β-lactamase +), above 125 µg/mL; in the series with B. fragilis (strain A22697, β-lactamase +, read-out: MIC), 8 µg/mL. The MIC in the series with B. fragilis (strain A22792, β-lactamase +) is 125 µg/mL; in the series with B. fragilis (strain A22793, β-lactamase +, read-out: MIC), 8 µg/mL; with B. fragilis (strain A22794, β-lactamase +, read-out: MIC), 8 µg/mL; with B. fragilis (strain A22795, β-lactamase +), 16 µg/mL; in the series on B. fragilis (strain A22797, β-lactamase +), 16 µg/mL; with B. fragilis (strain A22798, β-lactamase +, read-out: MIC) it was 8 µg/mL. Moreover, the MIC with B. thetaiotaomicron (Bacteroides thetaiotaomicron, strain A22277, β-lactamase +, read-out: MIC) is 16 µg/mL; in the series on B. thetaiotaomicron (strain A22279, β-lactamase +), 16 µg/mL; in the series on Bacteroides species (Bacteroides) it was 16 µg/mL; in the series with Bacteroides species (Bacteroides, strain A20927-1, β-lactamase -, read-out: MIC), 0.13 µg/mL; in the series on Bacteroides species (Bacteroides, strain A20930, β-lactamase +, read-out: MIC), 32 µg/mL; with Bacteroides species (Bacteroides, strain A20933, β-lactamase +, read-out: MIC) it was 8 µg/mL. The MIC with Bacteroides species (Bacteroides, strain A20934, β-lactamase +, read-out: MIC) is 8 µg/mL; with Bacteroides species (Bacteroides, strain A20935, β-lactamase -, read-out: MIC), 0.13 µg/mL; with Bacteroides species (strain A20929, β-lactamase +), 16 µg/mL; in the series with Bacteroides species (strain A20931, β-lactamase +) it was 16 µg/mL; in the series on Bacteroides species (strain A21954, β-lactamase +), 16 µg/mL. The PD50/Treatment is above 800 mg/kg in the series on S. aureus A-9606 (IM, challenge 7 × 10^8); above 400 mg/kg in [4] (E. coli A9675, challenge 6 × 10^5, vehicle TCMC); above 100 mg/kg in series [4] (E. coli A9675, challenge 7 × 10^5, vehicle 50% DMSO); above 100 mg/kg in [4] (E. coli A9675, challenge 7 × 10^5, vehicle TCMC); above 100 mg/kg in series [4] (E. coli A9675, challenge 9 × 10^5, vehicle 50% DMSO). In addition, the ED50 in the series with S. aureus A-9606 (IM) is above 800 mg/kg; in the series on S. aureus A-9606 (PO) it was above 800 mg/kg; in series [1] (read-out: PD50/Treatment, oral, E. coli A9675, challenge 6 × 10^5) it was above 400 mg/kg; in [1] (read-out: PD50/Treatment, oral, E. coli A9675, challenge 7 × 10^5), above 100 mg/kg; in [1] (read-out: PD50/Treatment, oral, E. coli A9675, challenge 8 × 10^5), above 200 mg/kg; in series [1] (read-out: PD50/Treatment, oral, E. coli A20649, challenge 5 × 10^5) it was above 200 mg/kg. The ED50 in series [1] (read-out: PD50/Treatment, oral, E. coli A20649, challenge 6 × 10^5) is above 200 mg/kg; in [1] (read-out: PD50/Treatment, oral, E. coli A21223, challenge 6 × 10^5), above 200 mg/kg; in [1] (read-out: PD50/Treatment, oral, E. coli A21223, challenge 7 × 10^5 (first line)), above 200 mg/kg; in series [1] (read-out: PD50/Treatment, oral, E. coli A21223, challenge 7 × 10^5 (third line)), above 200 mg/kg; in [2] (read-out: PD50/Treatment, oral, S. aureus A9606, challenge 2 × 10^9), above 800 mg/kg; in [2] (read-out: PD50/Treatment, oral, S. aureus A9606, challenge 7 × 10^8) it was above 200 mg/kg. Also, the ED50 in series [2] (read-out: PD50/Treatment, oral, S. aureus A15091, challenge 4 × 10^8) was above 200 mg/kg; in series [2] (read-out: PD50/Treatment, oral, S. aureus A15091, challenge 5 × 10^8) it was above 800 mg/kg; in [2] (read-out: PD50/Treatment, oral, S. aureus A20379, challenge 5 × 10^8), above 200 mg/kg; in [2] (read-out: PD50/Treatment, oral, S. aureus A20379, challenge 6 × 10^8) it was above 200 mg/kg; in series [3] it was above 800 mg/kg.

Regarding `CC1(C)S[C@@H]2[C@H](NC(=O)[C@H](N)c3ccccc3)C(=O)N2[C@H]1C(=O)O` [Ampicillin, reference compound], the MIC in the series on S. pneumoniae was 0.004 µg/mL (≈ 0.0114 µM); in the series on S. pyogenes, 0.004 µg/mL (≈ 0.0114 µM); with S. aureus (strain A-9537), 0.16 µg/mL (≈ 0.458 µM); in the series on S. aureus (strain A-9537, + 50% serum), 0.06 µg/mL; with S. faecalis it was 0.13 µg/mL (≈ 0.372 µM); with E. coli, 1 µg/mL (≈ 2.86 µM). For the same molecule, the MIC against P. mirabilis came out at 0.13 µg/mL (≈ 0.372 µM); in the series on P. rettgeri, 4 µg/mL (≈ 11.4 µM); in the series with S. marcescens, 16 µg/mL (≈ 45.8 µM); in the series on E. cloacae, 63 µg/mL (≈ 180 µM).

Take `CC1(CCl)C(C(=O)OC2OC(=O)c3ccccc32)N2C(=O)CC2S1(=O)=O` (stereo not drawn) [BL-P2036]: the concentration at 0.5 h in the series “in vivo” turned out to be 6700 ng/mL.

In the case of `CC1(CCl)C(C(=O)O)N2C(=O)CC2S1(=O)=O` (stereo not drawn) [Sodium Salt of BL-P2013], the hygroscopicity result in “Hygroscopicity” is listed as “Non-hygroscopic”.
